What was measured:
TIE2 = target: T1, TIE2 (Homo sapiens, UniProt Q02763); assay: Kinase panel, CaNDY 1 µM; format: biochemical; settings: CaNDY 1 µM relative to DMSO
T1 construct: purchased Carna Biosciences

INSR = target: T2, INSR (Homo sapiens, UniProt P06213); assay: Kinase panel, CaNDY 1 µM; format: biochemical; settings: CaNDY 1 µM relative to DMSO
T2 construct: purchased Carna Biosciences

MSK1 = target: T3, MSK1 (Homo sapiens, UniProt O75582); assay: Kinase panel, CaNDY 1 µM; format: biochemical; settings: CaNDY 1 µM relative to DMSO
T3 construct: purchased Carna Biosciences

CaMK2γ = target: T4, CaMK2γ (Homo sapiens, UniProt Q13555); assay: Kinase panel, CaNDY 1 µM; format: biochemical; settings: CaNDY 1 µM relative to DMSO
T4 construct: purchased Carna Biosciences

p38γ = target: T5, p38γ (Homo sapiens, UniProt P53778); assay: Kinase panel, CaNDY 1 µM; format: biochemical; settings: CaNDY 1 µM relative to DMSO
T5 construct: purchased Carna Biosciences
T5 sequence (P53778 whole entry): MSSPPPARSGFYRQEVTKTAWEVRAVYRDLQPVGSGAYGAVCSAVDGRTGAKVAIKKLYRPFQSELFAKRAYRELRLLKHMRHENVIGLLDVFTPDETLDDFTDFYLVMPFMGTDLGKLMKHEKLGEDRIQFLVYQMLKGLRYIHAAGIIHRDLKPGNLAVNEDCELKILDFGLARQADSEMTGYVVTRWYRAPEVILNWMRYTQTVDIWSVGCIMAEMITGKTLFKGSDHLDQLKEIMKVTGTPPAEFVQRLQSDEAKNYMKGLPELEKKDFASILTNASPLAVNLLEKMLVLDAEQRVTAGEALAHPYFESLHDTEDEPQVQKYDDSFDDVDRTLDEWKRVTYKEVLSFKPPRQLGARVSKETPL

TRKA = target: T6, TRKA (Homo sapiens, UniProt P04629); assay: Kinase panel, CaNDY 1 µM; format: biochemical; settings: CaNDY 1 µM relative to DMSO
T6 construct: purchased Carna Biosciences

LYNb = target: T7, LYNb (Homo sapiens, UniProt P07948); assay: Kinase panel, CaNDY 1 µM; format: biochemical; settings: CaNDY 1 µM relative to DMSO
T7 construct: purchased Carna Biosciences

PKCα = target: T8, PKCα (Homo sapiens, UniProt P17252); assay: Kinase panel, CaNDY 1 µM; format: biochemical; settings: CaNDY 1 µM relative to DMSO
T8 construct: purchased Carna Biosciences

Haspin = target: T9, Haspin (Homo sapiens, UniProt Q8TF76); assay: Western blot of target kinase expression in HEK293 cells; format: cell-based; parameters: endogenous in cells; host or cells: HEK293; settings: CaNDY 2 μM, 4 days
T9 sequence (Q8TF76 1-798): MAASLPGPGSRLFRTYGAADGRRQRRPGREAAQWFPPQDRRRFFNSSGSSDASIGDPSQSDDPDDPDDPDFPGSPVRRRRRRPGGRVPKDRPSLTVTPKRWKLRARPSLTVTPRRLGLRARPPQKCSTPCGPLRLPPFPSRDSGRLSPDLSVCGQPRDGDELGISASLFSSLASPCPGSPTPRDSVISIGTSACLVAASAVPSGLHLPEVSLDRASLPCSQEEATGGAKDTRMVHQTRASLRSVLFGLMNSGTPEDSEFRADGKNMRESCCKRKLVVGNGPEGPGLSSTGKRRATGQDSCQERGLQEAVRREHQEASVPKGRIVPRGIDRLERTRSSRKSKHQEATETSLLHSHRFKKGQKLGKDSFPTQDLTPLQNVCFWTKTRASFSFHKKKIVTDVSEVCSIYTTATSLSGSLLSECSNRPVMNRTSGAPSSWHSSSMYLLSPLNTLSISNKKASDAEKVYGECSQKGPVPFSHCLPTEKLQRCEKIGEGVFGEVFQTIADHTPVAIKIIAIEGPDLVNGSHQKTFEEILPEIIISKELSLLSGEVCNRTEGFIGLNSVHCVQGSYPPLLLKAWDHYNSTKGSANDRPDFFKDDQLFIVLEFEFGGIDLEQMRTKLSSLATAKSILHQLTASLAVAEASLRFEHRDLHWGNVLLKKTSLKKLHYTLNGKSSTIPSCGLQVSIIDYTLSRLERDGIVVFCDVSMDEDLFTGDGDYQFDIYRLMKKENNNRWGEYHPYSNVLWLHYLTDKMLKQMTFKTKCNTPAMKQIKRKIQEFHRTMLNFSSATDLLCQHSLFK
Protocol: (§1) To check selectivity of CaNDY for other kinases, we first examined protein expression of several kinases in HEK293 cells treated with CaNDY (2 μM) for 4 days. […] Third, protein expression of these kinases targeted by CaNDY (DYRK1A, DYRK1B, CLK1, and Haspin) was reassessed by Western blot analysis as performed in Fig. 7b.
(§2) Western blot analysis was performed using the antibodies described above. In brief, total cell lysates were separated by SDS-PAGE (5–20% gels; ATTO, Tokyo, Japan) under reducing conditions and then transferred to a PVDF membrane (PALL, SP, Brazil). Antibody reactions were performed with Can Get Signal® Immunoreaction Enhancer Solution (Toyobo). Peroxidase activities on the membrane were visualized with ECL Western Blotting Detection Reagents (GE Healthcare) or ImmunoStar® LD (Wako Pure Chemical Industries, Osaka, Japan), and a ChemiDoc^TM MP Imaging System (Bio-Rad, Hercules, CA, USA).

DYRK1B = DYRK1B (Homo sapiens, UniProt Q9Y463); assay: as above; format: cell-based; parameters: endogenous in cells; host or cells: HEK293; settings: CaNDY 2 μM, 4 days
Sequence of DYRK1B (Q9Y463 whole entry): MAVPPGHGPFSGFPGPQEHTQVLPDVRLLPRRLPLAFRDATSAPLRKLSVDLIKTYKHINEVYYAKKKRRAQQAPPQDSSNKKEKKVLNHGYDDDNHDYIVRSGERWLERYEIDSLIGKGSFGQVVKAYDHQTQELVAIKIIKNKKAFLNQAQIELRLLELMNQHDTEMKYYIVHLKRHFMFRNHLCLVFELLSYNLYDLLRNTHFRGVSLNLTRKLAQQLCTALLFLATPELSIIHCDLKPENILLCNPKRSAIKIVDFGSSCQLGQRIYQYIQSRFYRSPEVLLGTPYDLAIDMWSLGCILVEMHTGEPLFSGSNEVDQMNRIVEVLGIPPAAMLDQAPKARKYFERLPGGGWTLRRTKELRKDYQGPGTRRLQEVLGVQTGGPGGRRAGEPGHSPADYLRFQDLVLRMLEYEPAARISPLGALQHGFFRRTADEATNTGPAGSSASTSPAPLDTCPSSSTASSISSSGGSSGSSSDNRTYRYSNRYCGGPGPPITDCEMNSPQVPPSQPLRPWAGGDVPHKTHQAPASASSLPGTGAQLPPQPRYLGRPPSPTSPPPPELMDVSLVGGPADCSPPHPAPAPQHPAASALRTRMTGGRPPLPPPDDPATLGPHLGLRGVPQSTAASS
Protocol: as §1, §2

CLK1 = CLK1 (Homo sapiens, UniProt P49759); assay: as above; format: cell-based; parameters: endogenous in cells; host or cells: HEK293; settings: CaNDY 2 μM, 4 days
Protocol: as §1, §2

FLT1 = target: T10, FLT1 (Homo sapiens, UniProt P17948); assay: Kinase panel, CaNDY 1 µM; format: biochemical; settings: CaNDY 1 µM relative to DMSO
T10 construct: purchased Carna Biosciences

MNK2 = target: T11, MNK2 (Homo sapiens, UniProt Q9HBH9); assay: Kinase panel, CaNDY 1 µM; format: biochemical; settings: CaNDY 1 µM relative to DMSO
T11 construct: purchased Carna Biosciences

PAK6 = target: T12, PAK6 (Homo sapiens, UniProt Q9NQU5); assay: Kinase panel, CaNDY 1 µM; format: biochemical; settings: CaNDY 1 µM relative to DMSO
T12 construct: purchased Carna Biosciences

KDR = target: T13, KDR (Homo sapiens, UniProt P35968); assay: Kinase panel, CaNDY 1 µM; format: biochemical; settings: CaNDY 1 µM relative to DMSO
T13 construct: purchased Carna Biosciences
T13 sequence (P35968 20-1356): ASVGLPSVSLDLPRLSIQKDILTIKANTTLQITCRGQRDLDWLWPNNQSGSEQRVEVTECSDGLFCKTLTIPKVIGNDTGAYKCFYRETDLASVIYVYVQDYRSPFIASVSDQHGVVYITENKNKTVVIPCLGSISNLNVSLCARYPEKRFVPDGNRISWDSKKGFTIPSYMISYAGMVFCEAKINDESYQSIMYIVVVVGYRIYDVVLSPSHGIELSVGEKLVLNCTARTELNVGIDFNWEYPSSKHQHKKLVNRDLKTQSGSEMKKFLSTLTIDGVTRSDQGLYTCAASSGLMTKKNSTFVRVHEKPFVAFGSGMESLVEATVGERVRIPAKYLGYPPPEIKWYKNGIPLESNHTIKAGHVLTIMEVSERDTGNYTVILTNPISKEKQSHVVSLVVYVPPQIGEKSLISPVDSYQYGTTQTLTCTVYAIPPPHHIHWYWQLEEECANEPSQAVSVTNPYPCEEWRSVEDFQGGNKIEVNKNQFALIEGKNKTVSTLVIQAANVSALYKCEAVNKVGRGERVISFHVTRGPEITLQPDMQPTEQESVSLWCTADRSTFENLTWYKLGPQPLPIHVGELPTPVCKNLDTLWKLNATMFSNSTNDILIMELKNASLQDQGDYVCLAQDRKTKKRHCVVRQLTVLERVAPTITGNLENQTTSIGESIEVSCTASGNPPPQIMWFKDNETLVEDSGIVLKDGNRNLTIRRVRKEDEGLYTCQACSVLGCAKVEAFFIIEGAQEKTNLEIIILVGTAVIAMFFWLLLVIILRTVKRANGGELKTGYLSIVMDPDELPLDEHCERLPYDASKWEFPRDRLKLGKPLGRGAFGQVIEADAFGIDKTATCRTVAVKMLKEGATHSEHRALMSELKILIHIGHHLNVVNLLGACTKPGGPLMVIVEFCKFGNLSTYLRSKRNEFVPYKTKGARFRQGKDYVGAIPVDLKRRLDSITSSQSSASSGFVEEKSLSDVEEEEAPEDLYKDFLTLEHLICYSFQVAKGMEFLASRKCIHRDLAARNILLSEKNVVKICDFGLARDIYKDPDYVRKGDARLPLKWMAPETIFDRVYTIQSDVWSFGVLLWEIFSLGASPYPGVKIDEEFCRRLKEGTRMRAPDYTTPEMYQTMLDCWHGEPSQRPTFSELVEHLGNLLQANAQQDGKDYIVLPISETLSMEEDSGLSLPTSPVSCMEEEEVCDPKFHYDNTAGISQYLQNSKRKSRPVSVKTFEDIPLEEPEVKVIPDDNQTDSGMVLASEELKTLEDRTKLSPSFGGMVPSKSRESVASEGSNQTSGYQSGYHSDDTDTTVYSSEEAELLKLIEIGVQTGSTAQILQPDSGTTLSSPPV

SYK = target: T14, SYK (Homo sapiens, UniProt P43405); assay: Kinase panel, CaNDY 1 µM; format: biochemical; settings: CaNDY 1 µM relative to DMSO
T14 construct: purchased Carna Biosciences

PKCβ2 = target: T15, PKCβ2 (Homo sapiens, UniProt P05771); assay: Kinase panel, CaNDY 1 µM; format: biochemical; settings: CaNDY 1 µM relative to DMSO
T15 construct: purchased Carna Biosciences

FER = target: T16, FER (Homo sapiens, UniProt P16591); assay: Kinase panel, CaNDY 1 µM; format: biochemical; settings: CaNDY 1 µM relative to DMSO
T16 construct: purchased Carna Biosciences

IRR = target: T17, IRR (Homo sapiens, UniProt P14616); assay: Kinase panel, CaNDY 1 µM; format: biochemical; settings: CaNDY 1 µM relative to DMSO
T17 construct: purchased Carna Biosciences
T17 sequence (P14616 27-1297): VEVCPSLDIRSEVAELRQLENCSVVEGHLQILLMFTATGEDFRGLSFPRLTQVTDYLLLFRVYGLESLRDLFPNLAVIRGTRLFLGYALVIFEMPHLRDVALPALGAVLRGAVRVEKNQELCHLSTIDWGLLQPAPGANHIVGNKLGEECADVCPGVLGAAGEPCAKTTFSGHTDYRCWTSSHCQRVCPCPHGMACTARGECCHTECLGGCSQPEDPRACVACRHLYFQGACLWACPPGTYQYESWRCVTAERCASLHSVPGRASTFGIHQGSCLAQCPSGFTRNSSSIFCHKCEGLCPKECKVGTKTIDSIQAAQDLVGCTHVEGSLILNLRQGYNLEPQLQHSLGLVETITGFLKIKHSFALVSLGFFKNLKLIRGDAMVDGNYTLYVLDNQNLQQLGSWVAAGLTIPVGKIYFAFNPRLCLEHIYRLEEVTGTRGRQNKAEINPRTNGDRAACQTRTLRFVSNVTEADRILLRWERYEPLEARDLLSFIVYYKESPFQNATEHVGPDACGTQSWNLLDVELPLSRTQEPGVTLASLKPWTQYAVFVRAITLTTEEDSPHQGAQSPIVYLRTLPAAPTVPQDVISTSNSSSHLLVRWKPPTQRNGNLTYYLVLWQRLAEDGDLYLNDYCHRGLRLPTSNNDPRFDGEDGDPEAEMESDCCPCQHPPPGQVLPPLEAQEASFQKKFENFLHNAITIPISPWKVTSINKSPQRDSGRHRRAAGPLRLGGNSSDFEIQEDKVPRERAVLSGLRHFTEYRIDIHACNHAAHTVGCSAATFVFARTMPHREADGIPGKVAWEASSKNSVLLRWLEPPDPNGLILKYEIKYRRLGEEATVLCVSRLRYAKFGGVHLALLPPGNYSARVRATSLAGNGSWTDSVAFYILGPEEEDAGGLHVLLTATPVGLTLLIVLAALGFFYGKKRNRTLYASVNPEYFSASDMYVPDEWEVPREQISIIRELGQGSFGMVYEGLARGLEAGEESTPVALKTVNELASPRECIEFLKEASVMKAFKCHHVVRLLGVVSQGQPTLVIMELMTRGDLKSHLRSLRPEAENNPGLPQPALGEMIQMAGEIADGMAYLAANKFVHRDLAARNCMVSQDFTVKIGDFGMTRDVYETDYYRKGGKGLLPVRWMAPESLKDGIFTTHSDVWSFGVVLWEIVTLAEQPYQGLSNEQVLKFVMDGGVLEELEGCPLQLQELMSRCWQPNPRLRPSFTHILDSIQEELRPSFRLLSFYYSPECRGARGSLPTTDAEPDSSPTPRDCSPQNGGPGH

MLK2_Cascade = target: T18, MLK2_Cascade (Homo sapiens, UniProt Q02779); assay: Kinase panel, CaNDY 1 µM; format: biochemical; settings: CaNDY 1 µM relative to DMSO
T18 construct: purchased Carna Biosciences

CK2α1/β = target: T19, CK2α1/β (Homo sapiens, UniProt P68400); assay: Kinase panel, CaNDY 1 µM; format: biochemical
T19 construct: purchased Carna Biosciences
T19 sequence (P68400 whole entry): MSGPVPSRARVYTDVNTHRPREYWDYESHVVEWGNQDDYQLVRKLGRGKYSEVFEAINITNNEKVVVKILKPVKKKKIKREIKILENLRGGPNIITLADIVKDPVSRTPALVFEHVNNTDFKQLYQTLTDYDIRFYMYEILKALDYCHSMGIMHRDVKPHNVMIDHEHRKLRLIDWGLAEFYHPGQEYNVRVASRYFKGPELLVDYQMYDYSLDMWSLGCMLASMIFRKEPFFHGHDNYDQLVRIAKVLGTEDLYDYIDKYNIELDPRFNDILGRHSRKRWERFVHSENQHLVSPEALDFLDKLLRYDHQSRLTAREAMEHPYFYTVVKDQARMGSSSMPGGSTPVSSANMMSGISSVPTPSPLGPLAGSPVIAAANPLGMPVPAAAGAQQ
T19 sequence (P67870 whole entry partner): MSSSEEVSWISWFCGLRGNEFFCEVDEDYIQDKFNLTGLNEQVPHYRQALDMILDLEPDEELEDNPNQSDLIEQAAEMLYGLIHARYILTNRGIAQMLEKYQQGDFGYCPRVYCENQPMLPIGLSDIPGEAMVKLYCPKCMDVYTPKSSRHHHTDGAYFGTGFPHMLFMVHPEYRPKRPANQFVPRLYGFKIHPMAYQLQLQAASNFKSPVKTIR

PAK5 = target: T20, PAK5 (Homo sapiens, UniProt Q9P286); assay: Kinase panel, CaNDY 1 µM; format: biochemical; settings: CaNDY 1 µM relative to DMSO
T20 construct: purchased Carna Biosciences

PKCγ = target: T21, PKCγ (Homo sapiens, UniProt P05129); assay: Kinase panel, CaNDY 1 µM; format: biochemical; settings: CaNDY 1 µM relative to DMSO
T21 construct: purchased Carna Biosciences

MAP2K6_Cascade = target: T22, MAP2K6_Cascade (Homo sapiens, UniProt P52564); assay: Kinase panel, CaNDY 1 µM; format: biochemical; settings: CaNDY 1 µM relative to DMSO
T22 construct: purchased Carna Biosciences

EGFR(T790M) = target: T23, EGFR(T790M) (Homo sapiens, UniProt P00533, T790M); assay: Kinase panel, CaNDY 1 µM; format: biochemical; settings: CaNDY 1 µM relative to DMSO
T23 construct: purchased Carna Biosciences

Compound `[H]/N=C1/NC(=O)C(=Cc2ccc3c(c2)CCO3)S1` [CaNDY, (Z)-5-[(2,3-dihydrobenzofuran-5-yl)methylene]-2-iminothiazolidin-4-one] has a remaining activity at 1 µM (TIE2) of 101%, a remaining activity at 1 µM (INSR) of 103% and a remaining activity at 1 µM (MSK1) of 98.1%. For the same compound, the remaining activity at 1 µM (CaMK2γ) was 101%, the remaining activity at 1 µM (p38γ) was 91.4% and the remaining activity at 1 µM (TRKA) was 101%. For the same compound, the remaining activity at 1 µM (LYNb) was 98%, the remaining activity at 1 µM (PKCα) was 82.4% and the “protein expression of Haspin” value (Haspin) was “decreased expression”. For the same compound, the “protein expression of DYRK1B” value (DYRK1B) was “decreased expression”, the “protein expression of CLK1” value (CLK1) was “decreased expression” and the remaining activity at 1 µM (FLT1) was 102%. It also gave a remaining activity at 1 µM (MNK2) of 90.3%, a remaining activity at 1 µM (PAK6) of 101% and a remaining activity at 1 µM (KDR) of 102%. For the same compound, the “%Activity” value (SYK) was 93.7%, the remaining activity at 1 µM (PKCβ2) was 88.2% and the remaining activity at 1 µM (FER) was 98.6%. For the same compound, the remaining activity at 1 µM (IRR) was 103%, the remaining activity at 1 µM (MLK2_Cascade) was 124% and the remaining activity at 1 µM (CK2α1/β; CK2α1/β, CaNDY 1 µM relative to DMSO) was 34.7%. For the same compound, the inhibition at 1 µM (CK2α1/β; CK2α, 1 μM CaNDY, read-out: percentage inhibition) was 65%, the remaining activity at 1 µM (PAK5) was 97.5% and the remaining activity at 1 µM (PKCγ) was 90.6%. For the same compound, the remaining activity at 1 µM (MAP2K6_Cascade) was 99.5% and the “%Activity” value (EGFR(T790M)) was 107.5%.

Source: PMC4522657, “Identification of a DYRK1A Inhibitor that Induces Degradation of the Target Kinase using Co-chaperone CDC37 fused with Luciferase nanoKAZ” (Scientific Reports, 2015)
